Data published in ChEMBL document CHEMBL5678818, “Discovery of potent SOS1 inhibitors that block RAS activation via disruption of the RAS-SOS1 interaction” (Proc Natl Acad Sci U S A, 2019).

Key:
[1] = molecular target: T1, Mitogen-activated protein kinase kinase kinase 6 (Homo sapiens) (UniProt O95382); assay: Inhibition of ASK2 (unknown origin) assessed as residual activity at 1000 nM by KINOMEscan analysis relative to control
T1 sequence (whole entry): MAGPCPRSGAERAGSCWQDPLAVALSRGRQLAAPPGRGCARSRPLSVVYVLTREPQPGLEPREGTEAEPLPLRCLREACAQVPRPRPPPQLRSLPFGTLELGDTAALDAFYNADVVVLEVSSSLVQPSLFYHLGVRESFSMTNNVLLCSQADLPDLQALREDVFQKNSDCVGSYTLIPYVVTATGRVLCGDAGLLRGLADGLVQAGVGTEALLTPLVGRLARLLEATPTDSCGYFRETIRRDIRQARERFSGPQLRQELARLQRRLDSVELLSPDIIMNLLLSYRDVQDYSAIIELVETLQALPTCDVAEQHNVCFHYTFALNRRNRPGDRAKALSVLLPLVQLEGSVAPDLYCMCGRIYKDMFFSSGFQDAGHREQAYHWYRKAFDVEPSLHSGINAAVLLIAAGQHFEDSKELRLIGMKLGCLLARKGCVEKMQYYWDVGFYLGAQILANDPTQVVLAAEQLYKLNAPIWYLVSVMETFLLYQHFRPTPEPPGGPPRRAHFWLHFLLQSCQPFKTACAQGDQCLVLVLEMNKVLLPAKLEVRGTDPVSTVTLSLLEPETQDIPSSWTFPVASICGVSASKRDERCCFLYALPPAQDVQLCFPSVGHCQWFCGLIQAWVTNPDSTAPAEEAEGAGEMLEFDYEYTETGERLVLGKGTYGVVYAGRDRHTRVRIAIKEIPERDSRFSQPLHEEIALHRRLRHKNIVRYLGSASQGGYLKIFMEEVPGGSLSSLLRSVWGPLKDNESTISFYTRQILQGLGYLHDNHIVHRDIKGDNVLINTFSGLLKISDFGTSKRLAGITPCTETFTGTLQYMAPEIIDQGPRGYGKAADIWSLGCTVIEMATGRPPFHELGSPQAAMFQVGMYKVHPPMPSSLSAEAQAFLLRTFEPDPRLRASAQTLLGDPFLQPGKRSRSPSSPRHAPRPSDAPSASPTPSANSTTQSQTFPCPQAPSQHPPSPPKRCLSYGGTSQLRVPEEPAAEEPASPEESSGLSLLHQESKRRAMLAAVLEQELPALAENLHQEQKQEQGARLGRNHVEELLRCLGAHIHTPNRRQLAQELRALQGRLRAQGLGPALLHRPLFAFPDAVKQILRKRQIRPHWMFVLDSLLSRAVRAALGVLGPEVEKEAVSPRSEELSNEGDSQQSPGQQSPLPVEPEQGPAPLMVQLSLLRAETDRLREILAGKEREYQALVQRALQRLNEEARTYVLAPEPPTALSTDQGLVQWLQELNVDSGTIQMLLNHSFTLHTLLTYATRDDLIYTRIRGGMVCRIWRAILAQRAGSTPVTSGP

[2] = molecular target: Calcium/calmodulin-dependent protein kinase type 1D (Homo sapiens) (UniProt Q8IU85); assay: Inhibition of CAMK1D (unknown origin) assessed as residual activity at 1000 nM by KINOMEscan analysis relative to control
Calcium/calmodulin-dependent protein kinase type 1D (Homo sapiens), sequence (Q8IU85 whole entry, looked up, canonical isoform): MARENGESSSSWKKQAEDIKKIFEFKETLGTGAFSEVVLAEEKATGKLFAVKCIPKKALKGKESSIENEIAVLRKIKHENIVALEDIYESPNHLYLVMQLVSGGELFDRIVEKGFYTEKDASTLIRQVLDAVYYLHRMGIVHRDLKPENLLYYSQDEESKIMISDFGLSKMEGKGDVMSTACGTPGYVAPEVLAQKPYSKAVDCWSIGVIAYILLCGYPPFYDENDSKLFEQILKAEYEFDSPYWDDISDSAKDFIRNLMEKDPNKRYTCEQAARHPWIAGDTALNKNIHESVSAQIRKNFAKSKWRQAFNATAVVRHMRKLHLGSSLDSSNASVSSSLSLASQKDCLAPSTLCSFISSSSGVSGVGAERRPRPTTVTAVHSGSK

[3] = molecular target: Casein kinase I isoform alpha (Homo sapiens) (UniProt P48729); assay: Inhibition of CSNK1A1 (unknown origin) assessed as residual activity at 1000 nM by KINOMEscan analysis relative to control
Casein kinase I isoform alpha (Homo sapiens), sequence (P48729 2-337 limits assumed): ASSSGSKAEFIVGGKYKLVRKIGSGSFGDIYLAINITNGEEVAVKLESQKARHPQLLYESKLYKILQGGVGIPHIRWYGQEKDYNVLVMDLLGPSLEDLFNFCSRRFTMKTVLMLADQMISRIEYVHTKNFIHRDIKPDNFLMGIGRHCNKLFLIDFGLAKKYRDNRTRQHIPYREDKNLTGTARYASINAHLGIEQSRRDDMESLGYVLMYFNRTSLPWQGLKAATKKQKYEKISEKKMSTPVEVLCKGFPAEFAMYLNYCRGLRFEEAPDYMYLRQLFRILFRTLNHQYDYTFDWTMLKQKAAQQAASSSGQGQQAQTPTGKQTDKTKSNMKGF

[4] = molecular target: T2, Tyrosine-protein kinase JAK3 (Homo sapiens) (UniProt P52333); assay: Inhibition of JAK3 JH1 catalytic domain (unknown origin) assessed as residual activity at 1000 nM by KINOMEscan analysis relative to control
T2 sequence (whole entry): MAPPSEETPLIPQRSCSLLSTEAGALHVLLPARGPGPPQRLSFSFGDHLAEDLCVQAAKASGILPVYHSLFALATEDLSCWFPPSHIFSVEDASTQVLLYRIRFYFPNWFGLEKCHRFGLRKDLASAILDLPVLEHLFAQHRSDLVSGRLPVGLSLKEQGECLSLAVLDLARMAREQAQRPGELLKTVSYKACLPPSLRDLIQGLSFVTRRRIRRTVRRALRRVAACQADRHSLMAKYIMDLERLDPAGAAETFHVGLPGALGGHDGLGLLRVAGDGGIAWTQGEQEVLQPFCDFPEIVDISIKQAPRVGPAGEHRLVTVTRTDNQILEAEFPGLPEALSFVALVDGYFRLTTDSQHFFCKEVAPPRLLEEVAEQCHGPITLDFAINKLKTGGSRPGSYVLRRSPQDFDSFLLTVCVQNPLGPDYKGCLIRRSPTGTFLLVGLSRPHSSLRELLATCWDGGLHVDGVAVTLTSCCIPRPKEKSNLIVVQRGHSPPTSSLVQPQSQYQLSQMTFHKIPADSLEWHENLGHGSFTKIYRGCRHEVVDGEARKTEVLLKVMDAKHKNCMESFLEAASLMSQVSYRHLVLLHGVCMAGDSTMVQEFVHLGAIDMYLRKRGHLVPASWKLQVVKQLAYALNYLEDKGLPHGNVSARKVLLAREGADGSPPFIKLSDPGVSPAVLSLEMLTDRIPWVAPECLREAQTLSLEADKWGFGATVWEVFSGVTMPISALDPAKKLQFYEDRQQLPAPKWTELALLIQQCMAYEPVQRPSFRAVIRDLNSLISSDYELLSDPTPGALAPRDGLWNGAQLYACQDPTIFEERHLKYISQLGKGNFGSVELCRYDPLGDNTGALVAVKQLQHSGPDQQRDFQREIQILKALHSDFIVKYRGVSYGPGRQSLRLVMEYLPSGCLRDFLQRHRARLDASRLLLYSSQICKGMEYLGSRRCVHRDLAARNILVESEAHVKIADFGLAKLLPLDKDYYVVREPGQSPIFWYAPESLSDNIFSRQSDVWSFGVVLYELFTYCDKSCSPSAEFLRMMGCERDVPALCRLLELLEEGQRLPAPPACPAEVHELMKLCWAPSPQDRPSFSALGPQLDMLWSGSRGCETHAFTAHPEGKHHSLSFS

[5] = molecular target: T3, Uncharacterized serine/threonine-protein kinase SBK3 (Homo sapiens) (UniProt P0C264); assay: Inhibition of SgK110 (unknown origin) assessed as residual activity at 1000 nM by KINOMEscan analysis relative to control
T3 sequence (whole entry): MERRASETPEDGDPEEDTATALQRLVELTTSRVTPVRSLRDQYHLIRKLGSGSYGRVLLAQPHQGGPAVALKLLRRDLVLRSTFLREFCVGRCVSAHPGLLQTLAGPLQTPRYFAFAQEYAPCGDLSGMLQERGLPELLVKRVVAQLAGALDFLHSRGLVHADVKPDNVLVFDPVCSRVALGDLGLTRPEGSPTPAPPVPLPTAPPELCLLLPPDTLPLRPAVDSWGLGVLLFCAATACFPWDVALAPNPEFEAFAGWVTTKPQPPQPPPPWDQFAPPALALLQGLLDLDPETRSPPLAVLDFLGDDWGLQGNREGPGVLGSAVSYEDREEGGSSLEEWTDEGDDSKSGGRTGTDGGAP

| SMILES | Activity [1] [%] | Activity [2] [%] | Activity [3] [%] | Activity [4] [%] | Activity [5] [%] |
| --- | --- | --- | --- | --- | --- |
| COc1cc2nc(C)nc(N[C@H](C)c3cccc(-c4cn[nH]c4)c3)c2cc1OC | 69 | 68 | 76 | 100 | 100 |
| COc1cc2ncnc(N[C@H](C)c3cccc4ccccc34)c2cc1OC | 67 | 81 | 96 | 81 | 100 |
